# A melting point compilation (Tetko et al.; mined from patent text by program, amines drawn as free bases though some values may be those of a salt)
row,Structure (SMILES),melting point
1,Cn1c(C(F)(F)F)ccc(-c2cc(S)c(Cl)cc2F)c1=O,141 to 142 °C
2,CCOC(=O)c1[nH]c2ccccc2c1-c1ccc([N+](=O)[O-])cc1,218 to 220 °C
3,CCCc1nn(C)c2c(=O)[nH]c(-c3cc(S(=O)(=O)N4C[C@@H](C)N[C@@H](C)C4)ccc3OCC)nc12,202 to 203 °C
4,CN(C)CCOc1ccccc1CC(=O)N1C[C@@H]2C(=O)CCC(c3ccccc3)(c3ccccc3)[C@@H]2C1 (racemic),90 °C
5,CCOC(=O)c1c(-c2ccc(F)cc2)c2ccccc2n1C,61 to 62 °C
6,O=C(OC1CCCCC1)c1ncn2c1[C@@H]1CCCN1C(=O)c1c-2cccc1C(F)(F)F,193 to 194 °C
7,CSc1nc(CO)c(CO)n1-c1ccccc1,137 to 138 °C
8,O=C(O)CCSC1c2cc(OCc3ccc4ccc(Cl)cc4n3)ccc2OCc2c(-c3nnn[nH]3)cccc21 (centres undefined),122 to 125 °C
9,CCOC(=O)C1(C(=O)OCC)OC(=O)c2ncccc2C1(O)c1ccccc1 (centres undefined),146 to 147 °C
10,Cc1ccn(-c2ccc(C(=O)N3Cc4cccnc4Nc4ccccc43)c(F)c2)n1,122 to 125 °C
11,Cc1cc(=O)[nH]c(NC(=N)Nc2ccccc2C)n1,260 °C
12,CC(C)CCOc1ccc(C(=O)c2c(N)sc3c2CCN(Cc2ccccc2)C3)cc1,106 to 107 °C
13,CCOC(=O)CN1C(=O)COc2cc([N+](=O)[O-])ccc21,120 to 122 °C
14,COc1ccc(CCN(C)C)c2nn[nH]c12,176 to 180 °C
15,COC(=O)COC(=O)C(Cc1cc(=O)[nH]c2ccccc12)NC(=O)c1ccc(Cl)cc1 (centres undefined),202 to 204 °C
16,O=[N+]([O-])c1cccc(-n2cccn2)c1,85 to 87 °C
17,CCNc1nc2c(N)nc(C)c(C)c2n1CC(C)C,168 to 170 °C
18,CCOCc1nc2c(N)nc(C)c(C)c2n1CCNC(=O)Nc1ccccc1,110 °C
19,CC(=O)NCc1ccc2c(c1)N(C1CCN(CCCc3ccc(F)cc3)CC1)CC2,128 to 130 °C
20,OC[C@H]1OC[C@@H](n2c(NC3CC3)nc3cc(Cl)c(Cl)cc32)C[C@@H]1O,98 to 99 °C
21,N#Cc1ccc(-n2c(=O)oc3ccc(-c4ccc(F)cc4F)cc3c2=O)cc1,203 to 204 °C

row,Structure (SMILES),melting point
1,CN1C(=O)[C@H](NC(=O)/C=C/c2ccc(Cl)c(Cl)c2)N=C(c2ccccc2)c2ccccc21,145 to 147 °C
2,Cc1sc(S(N)(=O)=S)cc1C(C)O (centres undefined),100 to 102 °C
3,CC=Cc1c(-c2ccc(S(C)(=O)=O)cc2)cnn(-c2ccc(F)c(F)c2)c1=O,149 to 150 °C
4,CC(=Cc1cc(-n2[nH]c3c(c2=O)CCCC3)ccc1Cl)C(=O)O,278 °C
5,O=C(NCC12CC3CC(CC(C3)C1)C2)c1ccccc1C(c1ccc(O)cc1)c1ccc(O)cc1,149 to 151 °C
6,COc1ccc(N(C(=O)CN2C(=O)C(Cc3nn(Cc4ccccc4)c4ccccc34)(OC)C(=O)N(c3cccnc3)c3ccccc32)C(C)C)cc1 (centres undefined),223 to 224 °C
7,COc1cc(C(=O)C#CCO)cc(OC)c1OC,104 to 105 °C
8,O=C1Nc2ccc(-c3ccc(C=NO)c(F)c3)cc2C12CCCCC2,240 to 242 °C
9,CCCCOc1ccc(CC(C)C(=O)Oc2ccc(-c3ccc(C#N)cc3)cc2)cc1 (centres undefined),76.1 to 77.1 °C
10,O=C(CBr)c1csc(-c2ccc([N+](=O)[O-])cc2)n1,186 to 187 °C
11,CSc1ccc(-c2coc3ccc(-c4nnc(C)o4)cc23)cc1Cl,200 to 201 °C
12,COc1ccc2ccc(NC(=O)c3cccc(OC(C)=O)c3)nc2n1,172 °C
13,COc1ccc2c(c1)c(Cc1nc(-c3cccc([N+](=O)[O-])c3)cs1)c(C)n2C(=O)c1ccc(Cl)cc1,162 to 164 °C
14,N#CCc1cccc(CCc2ccccc2C(=O)O)c1,113 to 120 °C
15,Cc1nnc2n1-c1ccc(NC(=O)NCCO)cc1C(c1ccccc1F)=NC2,228 to 230 °C
16,OC(CN1CCC(C(O)c2ccccc2)CC1)c1ccccc1 (centres undefined),104 °C
17,Cc1[nH]cc2c(=O)n(-c3ccc(Cl)cc3)nc-2c1-c1cccc(-c2cccnc2)c1,312 to 318 °C
18,Cc1nnc(N2CCC(N3c4ccccc4N(C)S3(=O)=O)CC2)n1-c1ccc(Cl)cc1,210 to 212 °C
19,CN(C)Cc1nnc2n1-c1ccc(Cl)cc1C(c1ccc(Cl)cc1)=[N+]([O-])C2,260 °C
20,S=c1cc(N2CCOCC2)ss1,60 °C
21,CC(C)NCc1cccc(Cn2ccc(OCc3ccc(F)cc3F)c(Br)c2=O)c1,109 to 110 °C

# More lines, now with the values ahead:
row,melting point,Structure (SMILES)
1,118 °C,CC(C)c1cccc(C(C)C)c1NC(=O)Nc1ccccc1C(=O)NC1CCN(C(c2ccccc2)c2ccccc2)CC1
2,116 to 120 °C,CN(C)C(=O)C=Cc1c(C#N)cnn1-c1ncc(C(F)(F)F)cc1Cl
3,121 to 124 °C,C=CCC(NC(=O)c1ccc(OC)cc1)C(=O)O (centres undefined)
4,79 to 81 °C,C=C[C@@H]1Oc2ccccc2[C@H]1CC(=O)O (relative stereo)
5,235 to 237 °C,NC(=O)C(=O)Nc1nc(-c2oncc2-c2c(F)cccc2Cl)cs1
6,118 °C,CNC(=O)[C@@H]1CCN1S(=O)(=O)c1ccc(Cl)c(COc2cccc3c(-n4ccnc4)cc(C)nc23)c1Cl
7,96 to 98 °C,O=C(N[C@H]1CCN(CCc2ccc(F)cc2)C1)C(c1cccs1)c1cccs1
8,163 °C,CC(=O)NCCN1CCc2cc(NC(=O)c3ccccc3-c3ccc(C(F)(F)F)cc3)ccc2C1
9,196 to 198 °C,O=[N+]([O-])c1ccc2sc(-c3cccnc3)nc2c1
10,234 to 235 °C,COCC(=O)N[C@H]1CC[C@H](Nc2nccc(-n3nnc4ccccc43)n2)CC1
11,110 to 111 °C,CC1=CC=CC(O)(C(=N)N)C1C (centres undefined)
12,> 245 °C,Cn1cc(C2=C(c3cn(C(=O)C(C)(C)C)c4cc([N+](=O)[O-])ccc34)C(=O)NC2=O)c2ccccc21
13,170 to 172 °C,O=c1c2cccnc2c(-c2cccc(Cl)c2)cn1Cc1ccncc1
14,138 to 141 °C,O=C(O)c1ccoc1Cl
15,231 to 232 °C,Cc1cc2n(c(=O)n1)C(C)N=C2 (centres undefined)
16,158 °C,CCCCCNc1ncnc2c(C)n[nH]c12
17,188 to 189 °C,CC(C)NC(=O)C1=C(C(=O)Nc2ccc(Cl)cc2F)CCCC1
18,189 to 192 °C,CSc1cc(C)nc(SC)c1NC(=O)CCCCCCSc1nc2ccccc2[nH]1
19,245 to 248 °C,O=C1C(=O)c2ccccc2C2=C1SCC1(CCN(S(=O)(=O)c3cccs3)CC1)O2

row,melting point,Structure (SMILES)
1,181 to 183 °C,CC12CCC3c4ccc(C(=O)O)cc4CCC3C1CCC2C(=O)CCc1ccccc1 (centres undefined)
2,149 to 150 °C,C=CCC1(CC=C)c2cc(Br)ccc2-c2ccc(Br)cc21
3,129 °C,CCO[C@@H](Cc1ccc2oc(Cc3nc(-c4ccccc4)oc3C)cc2c1)C(=O)O
4,111 to 113 °C,CC1CC(=O)c2c(OS(=O)(=O)c3cccs3)ccc(-c3nccs3)c2C1 (centres undefined)
5,240 to 241 °C,CC1(C)CCC(C)(C)c2cc(C(N)C(=O)Nc3ccc(C(=O)O)c(O)c3)ccc21 (centres undefined)
6,212 to 213 °C,Nc1nc(Nc2ccccc2)sc1C=O
7,50 to 51 °C,CCCCCCCCCCCCCCOc1ccc(C(=O)OC)cc1OC
8,179 to 182 °C,CC(C)(C)OC(=O)Nc1cc2cc(OCc3ccccc3)ccc2cc1OCc1ccccc1
9,112 °C,CCCCOc1cc(/C=C(\OCC)C(=O)O)ccc1OCCc1ccc(OS(C)(=O)=O)cc1OC
10,172 to 173 °C,CCNc1nc(Cl)cc(NS(=O)(=O)c2ccc(N)cc2)n1
11,109 to 111 °C,CCOc1nc2c(nc1C(=O)Cl)c(C)nn2CC
12,195 to 197 °C,COc1cc(-c2cnc3ccccc3n2)cc([N+](=O)[O-])c1O
13,192 °C,CN(C)C(=O)Nc1ccc(Oc2ccnc(Cl)n2)cc1
14,246 to 249 °C,O=C(CSc1ccccc1)Nc1c(Cl)ccc2nc(N3CC[C@@H](O)C3)ccc12
15,182 °C,COC(=O)c1ccc(C2c3[nH]c4ccccc4c3CCN2C(=O)C=Cc2cccc(C(=O)OC)c2)cc1 (centres undefined)
16,224 °C,OC(Cn1ccnc1)(c1ccccc1)c1ccc(-c2ccccc2)cc1 (centres undefined)
17,196 to 198 °C,Oc1ccc(-c2c(Cl)c3cc(O)ccc3n2Cc2ccc(OCCN3CCCCCC3)cc2)cc1
18,39 to 41 °C,N#Cc1ccc(CCCCCO)cc1
19,205 to 206 °C,CCOC(=O)C1=C(C(C)C)Nc2n[nH]cc2C1c1ccccc1[N+](=O)[O-] (centres undefined)

row,melting point,Structure (SMILES)
1,115 to 118 °C,CCCCCCCCCCSC(=S)N1Cc2[nH]c3ccccc3c2CC1CO (centres undefined)
2,154 to 157 °C,Cc1ccccc1-c1ccc(C(=O)N2Cc3ccc(C(=O)NCCc4ccc5c(c4)OCO5)n3Cc3ccccc32)cc1C
3,253 to 255 °C,CC(=O)NNC(=O)c1[nH]c2ccccc2c1Cl
4,61 to 62 °C,CCCCCCCCCCCCCCCCCCOCCOCCOC(=O)NCc1ccccn1
5,135 to 137 °C,CCC(=O)N1CCC(=O)c2cc(Cl)c(Cl)cc21
6,150 to 160 °C,CCC12CCC3c4ccc(OC)cc4C(C)CC3C1CCC2O (centres undefined)
7,> 270 °C,Cc1ccc(C)n1-c1cc2c(cc1C(F)(F)F)[nH]c(=O)c(=O)n2CC(=O)O
8,228 to 233 °C,NC(=O)CCCCCCn1cccc1
9,111 to 113 °C,NS(=O)(=O)c1ccc([C@H]2[C@H](C(=O)Nc3ccc(C(F)(F)F)cc3Cl)C23CCCC3)cc1 (relative stereo)
10,155 to 158 °C,CCOC(=O)c1ncn(-c2nccs2)c1S
11,149 to 150 °C,Cc1nn2c(-c3cccc(C(F)(F)F)c3)ccnc2c1C#N
12,40 to 45 °C,CS(=O)(=O)OCCC(CCOS(C)(=O)=O)C(F)(F)F
13,78 to 81 °C,C=CCc1cccc2c(=O)cc(-c3ccccc3F)oc12
14,188 to 190 °C,Cc1ccc(Nc2nc(CO)cs2)c(O)c1
15,229 to 230 °C,Cc1cc(-c2nc3ccc(CN4CCN(C)CC4)cc3c(=O)[nH]2)cc(C)n1
16,67 to 68 °C,O[C@H]1c2cc(Oc3ccccn3)ccc2OC[C@H]1Cc1cccnc1 (relative stereo)
17,> 200 °C,Cc1ccc(S(=O)(=O)c2cc3cnc(C)nc3nc2O)cc1
18,118 to 119 °C,CN1CCC(O)(c2ccccc2CO)CC1
19,82 to 84 °C,CCC(CC)(NCCCn1cnc(CO)c1)c1ccccc1
